Numbered stars: 1 amine (or outer) side, 2 acyl side, 3 side chain; on linkers, the order of the positions; unused ones are H or OH. Square brackets hold non-standard residues; d marks the D form. Peptide text beside a SMILES is read from it. * marks the point of attachment. X3 = CC(=O)[C@H]1CC[C@H]2[C@@H]3CCC4=CC(=O)CC[C@]4(C)[C@H]3[C@H](OCC(=O)*)C[C@]12C; X1 = CC(=O)C1CCC2C3CCC4=CC(=O)CCC4(C)C3C(OC3OC(C(=O)*)C(O)C(O)C3O)CC12C; Sta = CC(C)C[C@H](N)[C@@H](O)CC(=O)O; X2 = CC(C)CC(N[*:1])C(O)CC(=O)[*:2]
Key:
[1] = molecular target: Endothia Parasitica Protease (Cryphonectria parasitica, UniProt P11838); assay: Enzyme inhibition with chromogenic peptide substrate; format: biochemical
From the text: Enzyme inhibition data was obtained using synthetic peptide substrates containing a chromophoric nitrophenylalanine residue in the position of the scissile bond so that hydroysis can be followed spectrophotometrically. Hydrolysis was followed at 300 nm and the substrate can be used at any pH value (usually between 2-6) at which the enzyme is active. Kinetic parameters for the hydrolysis of a chromogenic peptide substrate by different types of mammalian aspartic proteinases have been reported J. Kay, M. J. Valler and B. M. Dunn, Naturally-occurring inhibitors of Aspartic Proteinases in Proteinase Inhibitors; N. Katunuma, H. Umezawa and H. Holzer Eds., 1983 Springer-Verlag, Berlin (in press).

[2] = test system: Monoclonal progesterone antibody 11P12; format: binding; details: radioimmunoassay
From the text: Monoclonal progesterone antibody was obtained from Dr. Wang of the Imperial Cancer Research Fund Laboratories, Lincolns Inn, London, England. It had been raised against the immunogen progesterone-11 -hemisuccinyl-bovine serum albumin according to the method of V. E. Fantl, D. Y. Wang and R. E. Knyba, J. Steroid Biochem, 1982, 17, 125-130. The monoclonal antibody of choice for use in the specific assay described below is designated 11P12 in the above mentioned publication.
(§1) A radioimmunoassay employing tritiated progesterone and dextran coated charcoal separation of bound and free progesterone was used to assess the immunoreactivity of progesterone derivatives and progesterone-inhibitor conjugates with the monoclonal and polyclonal antisera, by the method of R. B. Heap, R. J. Holdsworth, J. E. Gadsby, J. A. Laing and D. E. Walters, Brit. Vet. J. 1976, 132, 445-464.

[3] = test system: Polyclonal antiserum to progesterone (18/3); format: binding; details: radioimmunoassay, polyclonal antiserum 18/3
From the text: (§2) Polyclonal antisera to progesterone were obtained from the Milk Marketing Board, Veterinary Laboratories, Cleeve House, Lower Wick, Worcester, England and from Guildhay Antisera, Division of Clinical Biochemistry, Department of Biochemistry, University of Surrey, Guildford, Surrey, England. The antiserum from the Milk Marketing Board had been raised against the immunogen progesterone-11α -hemisuccinyl-bovine serum albumin and the Guildhay antiserum raised against progesterone-11α -hemisuccinyl-ovalbumin.
as §1

[4] = test system: Polyclonal antiserum to progesterone HPS 53IIb; assay: Radioimmunoassay for immunoreactivity with polyclonal antiserum HPS 53IIb; format: binding, sheep
From the text: as §2, §1
Dilutions of chymosin in assay buffer were prepared at 1/1000, 1/1100, 1/1210, 1/1331, 1/1464, 1/1611, 1/1772, 1/1949. 30 μl of each diluted enzyme solution was used in each microtiter well. A solution of the progesterone-inhibitor designated P4SP2, at a concentration of 40 pmol/ml was prepared; 25 μl (1 pmol) being used in each microtiter well. […]

Chymosin = molecular target: T1, Chymosin (Bos taurus, UniProt P00794); assay: Enzyme inhibition with chromogenic peptide substrate; format: biochemical, calf; details: pH 6.0
T1 construct: purchased Sigma Chemical Co. Ltd., or from recombinant prochymosin (E. coli) supplied by Celltech Ltd; host or cells: calf enzyme, or E. coli for the recombinant prochymosin
From the text: Enzyme inhibition data was obtained using synthetic peptide substrates containing a chromophoric nitrophenylalanine residue in the position of the scissile bond so that hydroysis can be followed spectrophotometrically. Hydrolysis was followed at 300 nm and the substrate can be used at any pH value (usually between 2-6) at which the enzyme is active.

[5] = molecular target: T2, chymosin milk-clotting activity (Bos taurus, UniProt P00794); assay: Milk-clotting assay in microtiter plates; format: biochemical, calf
T2 construct: purchased Sigma Chemical Co. Ltd., or from recombinant prochymosin (E. coli) supplied by Celltech Ltd; host or cells: calf enzyme, or E. coli for the recombinant prochymosin
Description: Milk-clotting assays were carried out in the wells of microtiter plates. In each assay, after a suitable reaction time, the microtiter plate was inverted. Where clotting occurred, the clots remained in the wells of the plate, and where there was no clotting, the contents of the wells were decanted.
The general assay procedure was as follows:
20 μl of assay buffer containing 0.2% bovine serum albumin was pipetted into the wells of a microtiter plate. This was followed by 25 μl of assay buffer alone, or assay buffer containing the desired concentration of progesterone-inhibitor conjugate followed by 25 μl of assay buffer alone, or assay buffer containing the desired concentration of progesterone antibody. Then 30 μl of assay buffer containing the desired concentration of chymosin was added. This was followed by 100 μl of a milk substrate solution. The microtiter plate containing the assay mixture was placed in an incubator at 37° C. for 1 hour. At the end of this time the plate was inverted over a sink and tapped very lightly a few times, and then placed inverted on some tissue paper. The presence of clots was readily observed and either scored on a microtiter plate diagram or alternatively the inverted plate was photocopied against a dark background.
Dilutions of chymosin in assay buffer were prepared at 1/1000, 1/1100, 1/1210, 1/1331, 1/1464, 1/1611, 1/1772, 1/1949. 30 μl of each diluted enzyme solution was used in each microtiter well. A solution of the progesterone-inhibitor designated P4SP2, at a concentration of 40 pmol/ml was prepared; 25 μl (1 pmol) being used in each microtiter well. Dilutions of sheep polyclonal antiserum HPS 53-IIb (supplied by Guildhay Antisera) were prepared at 1/50, 1/100 and 1/200; 25 ul of each dilution being used in each microtiter well.
A 1/50 dilution of antibody to progesterone (HPS53 IIb--Guildhay antisera) was used, together with a fixed concentration of progesterone-inhibitor conjugate P4SP2 (100 pmol/ml). The final concentration of conjugate was 1 pmol/well. Progesterone was dissolved in assay buffer at a concentration of 0.5 nmol/ml, to give a final concentration of 7.5 pmol/well. Incubation mixtures containing 0.571 ml of assay buffer containing 0.2% BSA, 0.714 ml of dilute antibody, 0.429 ml of progesterone in assay buffer and 0.286 ml of inhibitor conjugate were prepared. Control incubates were also prepared in which antibody, progesterone, or both were replaced by equivalent volumes of assay buffer. A similar series of incubation mixtures in which progesterone-inhibitor conjugate was replaced by assay buffer was also prepared. These mixtures were incubated at 4° C. for 2 hours. At the end of the incubation, 70 μl of incubate was transferred to each well in duplicate rows on the microtitre plate. Dilution of a 1 mg/ml solution of chymosin in assay buffer were prepared as follows: 1/1210 1/1331, 1/1464, 1/1611, 1/1772, 1/1949, 1/2144, 1/2358, 1/2594, 1/2835, 1/3138, 1/3452. 30 μl of each dilution was added to each well in a column of the microtitre plates. These dilutions gave a final concentration of 0.71, 0.64, 0.58, 0.53, 0.48, 0.44, 0.40, 0.36, 0.33, 0.30, 0.27 and 0.25 pmol/well. 100 ul of milk substrate was added to each well and the plates were incubated for one hour at 37° C. before checking for clotting. In the absence of progesterone, antibody and progesterone-inhibitor conjugate, the limiting concentration of chymosin necessary for clotting is 0.36 pmol/well. […]

[6] = test system: Polyclonal antiserum to progesterone HPS 645IIc; assay: Radioimmunoassay for immunoreactivity with polyclonal antiserum HPS 645IIc; format: binding
From the text: as §2, §1

[7] = Endothia Parasitica Protease, pH 3.1

Chain of Endothia Parasitica Protease (P11838 90-419): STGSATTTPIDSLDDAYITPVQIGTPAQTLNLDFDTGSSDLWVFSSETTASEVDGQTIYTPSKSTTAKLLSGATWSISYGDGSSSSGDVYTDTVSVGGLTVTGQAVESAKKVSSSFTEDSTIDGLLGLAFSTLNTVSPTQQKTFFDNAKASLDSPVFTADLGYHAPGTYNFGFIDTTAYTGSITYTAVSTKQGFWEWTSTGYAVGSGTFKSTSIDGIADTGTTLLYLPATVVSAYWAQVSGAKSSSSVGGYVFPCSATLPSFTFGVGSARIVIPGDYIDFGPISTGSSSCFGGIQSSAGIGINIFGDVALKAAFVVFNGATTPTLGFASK
T1 sequence (P00794 59-381): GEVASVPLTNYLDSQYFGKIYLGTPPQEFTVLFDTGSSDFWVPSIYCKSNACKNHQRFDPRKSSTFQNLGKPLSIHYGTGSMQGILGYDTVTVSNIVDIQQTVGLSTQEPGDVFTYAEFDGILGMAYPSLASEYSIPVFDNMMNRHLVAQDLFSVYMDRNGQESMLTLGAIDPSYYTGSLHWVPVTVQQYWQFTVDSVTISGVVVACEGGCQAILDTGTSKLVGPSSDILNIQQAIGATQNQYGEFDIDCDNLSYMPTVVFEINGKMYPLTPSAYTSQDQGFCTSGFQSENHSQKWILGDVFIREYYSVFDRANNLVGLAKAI
T2 sequence (P00794 59-381): as above

| Compound | Immunoreactivity Monoclonal 11P12 [2] [%] | Immunoreactivity Polyclonal (18/3) [3] [%] | Ki ([1]; Endothia, pH 6.0) [nM] | Ki (Chymosin) [nM] | also measured |
| --- | --- | --- | --- | --- | --- |
| Achisleuserstualaileproprolyslys [IV] | – | – | – | – | Ki [1, 7]: 6 nM |
| CC(=O)[C@H]1CC[C@H]2[C@@H]3CCC4=CC(=O)CC[C@]4(C)[C@H]3[C@H](OCC(=O)O)C[C@]12C [II, Progesterone11α-carboxymethylether, reference compound] | 77.4 | – | – | – | – |
| Hisleuserphestatalaileproprolyslys [III] | – | – | – | – | Ki [1, 7]: 10 nM |
| CC(=O)[C@H]1CC[C@H]2[C@@H]3CCC4=CC(=O)CC[C@]4(C)[C@H]3[C@H](OC3O[C@H](C(=O)O)[C@@H](O)[C@H](O)[C@H]3O)C[C@]12C (stereo partly drawn) [I, Progesterone11α-glucuronide, reference compound] | 151 | 92.1 | – | – | – |
| CCC(C)C(NC(=O)C(C)NC(=O)CC(O)C(CC(C)C)NC(=O)C(CO)NC(=O)C(CC(C)C)NC(=O)C1OC(OC2CC3(C)C(C(C)=O)CCC3C3CCC4=CC(=O)CCC4(C)C23)C(O)C(O)C1O)C(=O)N1CCCC1C(=O)N1CCCC1C(=O)NC(CCCCN)C(=O)NC(CCCCN)C(=O)O (stereo not shown) [VI] (X1-LS[X2]AIPPKK-OH; configuration not given here) | 3.8 | 16.4 | 470 | 20 | Immunoreactivity Polyclonal (HPS 53IIb) [4]: 34%; milk clotting with conjugate in the presence of antibody ([5]; 1 pmol/well conjugate plus 1/50 antibody HPS53 IIb (FIG. 3)): clotting is restored; milk clotting with conjugate in the presence of antibody and free progesterone ([5]; 1 pmol/well conjugate, 1/50 antibody HPS53 IIb, progesterone 7.5 pmol/well (FIG. 3)): antibody restoration of clotting activity was impaired; modulation by antibody of the conjugate's inhibition of chymosin milk clotting activity ([5]; 1 pmol/well conjugate, antiserum HPS 53-IIb at 1/50, 1/100, 1/200, chymosin dilutions 1/1000-1/1949 (FIG. 1)): can be modulated by the addition of antibody; chymosin required to give a visible clot (limiting concentration of chymosin necessary for clotting) ([5]; 1 pmol/well of the inhibitor conjugate, no antibody, no progesterone, 1 h 37° C., control without additions 0.36 pmol/well): 0.44 pmol/well |
| CC[C@H](C)[C@H](NC(=O)[C@H](C)NC(=O)C[C@H](O)[C@H](CC(C)C)NC(=O)[C@H](CO)NC(=O)[C@H](CC(C)C)NC(=O)CO[C@@H]1C[C@]2(C)[C@@H](C(C)=O)CC[C@H]2[C@@H]2CCC3=CC(=O)CC[C@]3(C)[C@H]21)C(=O)N1CCC[C@H]1C(=O)N1CCC[C@H]1C(=O)N[C@@H](CCCCN)C(=O)N[C@@H](CCCCN)C(=O)O [VII] (X3-LS[Sta]AIPPKK-OH) | 17.1 | 33.6 | 26 | 6.7 | Immunoreactivity Polyclonal (HPS 53IIb) [4]: 42.1%; Immunoreactivity Polyclonal (HPS 645IIc) [6]: 17.4% |
| CCC(C)C(NC(=O)C(C)NC(=O)CC(O)C(CC(C)C)NC(=O)C(CO)NC(=O)C(CC(C)C)NC(=O)C(Cc1c[nH]cn1)NC(=O)C1OC(OC2CC3(C)C(C(C)=O)CCC3C3CCC4=CC(=O)CCC4(C)C23)C(O)C(O)C1O)C(=O)N1CCCC1C(=O)N1CCCC1C(=O)NC(CCCCN)C(=O)NC(CCCCN)C(=O)O (stereo not shown) [V] (X1-HLS[X2]AIPPKK-OH; configuration not given here) | 31.8 | 9.5 | 40 | 52 | – |
| CC(=O)[C@H]1CC[C@H]2[C@@H]3CCC4=CC(=O)CC[C@]4(C)[C@H]3CC[C@]12C [Progesterone, reference compound] | – | – | – | – | limiting concentration of chymosin necessary for clotting ([5]; progesterone alone, 7.5 pmol/well, no conjugate, compared with control 0.36 pmol/well): remains the same |
